Experimental data taken from patent US20170065533A1 (YISSUM RESEARCH DEVELOPMENT COMPANY OF THE HEBREW …, priority 2011, published 2017).

Legend:
[1] = Particle size, PDI and zeta potential of nanocarriers; format: physicochemical; settings: INPs conjugated to MAbs
Method: mean diameter and particle size distribution measurements were carried out utilizing an ALV Noninvasive Back Scattering High Performance Particle Sizer (ALV-NIBS HPPS, Langen, Germany) at 25° C. and using water as diluent.
the zeta potential of the NPs was measured using the Malvern zetasizer (Malvern, UK) diluted in HPLC grade water.
The size and zeta potential of the various NPs were measured in water using a DTS zetasizer (Malvern, UK).
The mean diameter and the zeta potential of NCs were characterized using Malvern's Zetasizer (Nano series, Nanos-ZS, UK) at 25° C. and using water as diluent.
Mean diameter and zeta potential of the NCs were characterized using Malvern's Zetasizer (Nano ZSP) at 25° C. For the sample preparation, 200 mg of the anhydrous semi-solid preparation were dissolved in 2 mL HPLC water. The sample was vortexed and further centrifuged (4000 rpm, 10 min). Then, 1.2 mL of the supernatant was collected and centrifuged again (14000 rpm, 10 min). Finally, 1 mL of the obtained supernatant was collected and evaluated.

[2] = Conjugation efficiency of MAbs to NPs (BCA assay); format: physicochemical; settings: INPs conjugated to MAbs
Method: The conjugation efficiency of the macromolecules such as MAbs was determined using the […] Bicinchoninic acid assay (BCA) for protein quantification (Pierce, Ill., USA).

[3] = cited from earlier work
[4] = 50 mg/day over one year, cited from earlier work
[5] = cited from earlier work; remark: listed apart in the source

Row | Molecule | Size [1] | Conjugation [2] | expression of procollagen alpha1 (I) mRNA and protein ([3]; DHEA (5%) in ethanol:olive oil (1:2), 12 times over 4 weeks, aged and young skin) | basal expression of MMP-1 mRNA and protein ([3]; DHEA (5%) topical, 12 times over 4 weeks) | expression of TIMP-1 protein ([3]; DHEA (5%) topical, aged skin) | skin status (hydration, epidermal thickness, sebum production, pigmentation) ([4]; aged 60 years and over) | harmful consequences [4] | maximum solubility in mid chain triglycerides [5]
1 | rituximab immunonanoparticles: thiolated PEG-PLGA50,000/PLGA48,000 nanoparticles surface-conjugated to rituximab MAb | 73.75 nm | 86.7% |  |  |  |  |  | 
2 | C[C@]12CC[C@H](O)CC1=CC[C@@H]1[C@@H]2CC[C@]2(C)C(=O)CC[C@@H]12 [DHEA, dehydroepiandrosterone] |  |  | significantly increase | significantly decreased | increased | improvement of the skin status | no harmful consequences | 1.77%
